Measured values reported in the Biogen ADME set (Fang et al. 2023).
In brackets after ≈: the same amount, converted by molar mass.

Settings: for aqueous solubility: pH 6.8

| Structure (SMILES) | intrinsic clearance, human liver microsomes | intrinsic clearance, rat liver microsomes | MDR1-MDCK efflux ratio | fraction unbound, human plasma | fraction unbound, rat plasma | aqueous solubility |
| --- | --- | --- | --- | --- | --- | --- |
| N#CCNC(=O)c1ccc(C#N)c(Cl)c1 | ≤ 4.74 mL/min/kg | ≤ 10.7 mL/min/kg | – | – | – | – |
| NC[C@@](O)(c1ccc(Cl)cc1)c1ccc(-c2cn[nH]c2)cc1 | ≤ 4.74 mL/min/kg | 28 mL/min/kg | 1.61 | – | – | – |
| CCc1nc(CC)n(Cc2nc(C)cs2)n1 | ≤ 4.74 mL/min/kg | 39.8 mL/min/kg | 0.797 | – | – | 35.9 µg/mL (≈ 152 µM) |
| CC(C)c1nnc(NCc2cc(F)cc(F)c2)o1 | ≤ 4.74 mL/min/kg | 111 mL/min/kg | 0.786 | – | – | – |
| Cc1nc(-c2ccc(C)c(O)c2)n(C(C)(C)C)n1 | ≤ 4.74 mL/min/kg | 124 mL/min/kg | – | – | – | 12.1 µg/mL (≈ 49.3 µM) |
| COc1cc2ncn(-c3cc(OCc4ccccc4S(C)(=O)=O)c(C#N)s3)c2cc1OC | – | – | 8.01 | – | – | 0.3 µg/mL (≈ 0.639 µM) |
| CC1(C)O[C@@](C)([C@H]2CC3(CCNCC3)CO2)CC[C@@H]1O | ≤ 4.74 mL/min/kg | ≤ 10.7 mL/min/kg | 0.443 | – | – | 42.6 µg/mL (≈ 150 µM) |
| Cc1cc(CNc2cc(C(=O)N(C)C)ccn2)sc1Br | 36.2 mL/min/kg | 799 mL/min/kg | 0.744 | – | – | 47.3 µg/mL (≈ 134 µM) |
| Cn1ccc(CN2C(=O)c3ccccc3C2=O)cc1=O | ≤ 4.74 mL/min/kg | 12.1 mL/min/kg | 1.9 | – | – | 50 µg/mL (≈ 187 µM) |
| NCCCc1nc(-c2ccncc2)cs1 | 29.3 mL/min/kg | 239 mL/min/kg | – | – | – | – |
| CC(C)(C)c1ccc(C2=NC3(CCNCC3)NC2=O)cc1 | 6.52 mL/min/kg | 59.6 mL/min/kg | 33.8 | – | – | 45 µg/mL (≈ 158 µM) |
| CCc1c(O)cc(O)c(C(=O)c2ccc(OCCN3CCOCC3)c(OC)c2)c1CC(=O)N(CCOC)CCOC | 28.1 mL/min/kg | 209 mL/min/kg | 7.53 | – | – | – |
| N#Cc1cnc2ccccc2c1OCCO | 10.4 mL/min/kg | 12.7 mL/min/kg | – | – | – | – |
| O=C(NCc1ccc(F)cc1)C1(Cc2ccc(-c3cccnc3)cc2)CCOCC1 | 781 mL/min/kg | 1970 mL/min/kg | 4.82 | – | – | 87.5 µg/mL (≈ 216 µM) |
| OC(Cn1cncn1)(Cn1cncn1)c1ccc(F)cc1F | ≤ 4.74 mL/min/kg | ≤ 10.7 mL/min/kg | 5.25 | – | – | 42.9 µg/mL (≈ 140 µM) |
| C[C@@H](CN1CCC2(CC1)C(=O)NCN2c1cccc(F)c1)NC(=O)c1ccc(Br)cc1 | 88.8 mL/min/kg | 312 mL/min/kg | – | – | – | 3.85 µg/mL (≈ 7.87 µM) |
| Cc1ncc(C(=O)Nc2ncnc3oc(C)c(C)c23)s1 | 26.3 mL/min/kg | 160 mL/min/kg | 0.422 | – | – | 53.2 µg/mL (≈ 185 µM) |
| COC(=O)[C@]12CCC(C)(C)CC1C1C(=O)C=C3[C@@]4(C)C=C(C#N)C(=O)C(C)(C)[C@@H]4CC[C@@]3(C)[C@]1(C)CC2 (stereo not given in full) | 93.5 mL/min/kg | 323 mL/min/kg | – | – | – | 3.15 µg/mL (≈ 6.23 µM) |
| CCc1noc(C2CCC(NCC3CCC(F)(F)CC3)CC2)n1 (stereo not given) | 54.4 mL/min/kg | 240 mL/min/kg | 2.98 | – | – | 75.9 µg/mL (≈ 232 µM) |
| c1ccc(OCc2nc3cc4ccccc4cc3[nH]2)cc1 | – | – | 0.257 | – | – | 0.29 µg/mL (≈ 1.06 µM) |
| Cc1ccc(-c2ccc(=O)n(Cc3ccncc3)n2)cc1 | 41.7 mL/min/kg | 2400 mL/min/kg | 0.617 | – | – | 42.6 µg/mL (≈ 154 µM) |
| Cc1ccc(-c2ccc3c(ccc4sc5c(c43)NC[C@@H](C)NC5=O)n2)cn1 | – | – | 5.49 | – | – | 0.2 µg/mL (≈ 0.534 µM) |
| CC(C)C[C@H](CO)Nc1nc(S[C@@H](C)c2ccccc2)nc2nc(N)sc12 | 40.2 mL/min/kg | 329 mL/min/kg | – | – | – | – |

Results, then the compound that gave them:

| intrinsic clearance, human liver microsomes | intrinsic clearance, rat liver microsomes | MDR1-MDCK efflux ratio | fraction unbound, human plasma | fraction unbound, rat plasma | aqueous solubility | Structure (SMILES) |
| --- | --- | --- | --- | --- | --- | --- |
| ≤ 4.74 mL/min/kg | ≤ 10.7 mL/min/kg | 150 | 0.393 | 0.375 | 53.7 µg/mL (≈ 139 µM) | COc1cc(F)ccc1-c1ncnc(Nc2cccc(C[S@@](C)(=N)=O)c2)n1 |
| – | – | 0.494 | – | – | 0.26 µg/mL (≈ 0.711 µM) | O=C(Nc1ccccc1)c1sc(N2CCOCC2)nc1-c1ccccc1 |
| ≤ 4.74 mL/min/kg | 122 mL/min/kg | 0.971 | – | – | 52.1 µg/mL (≈ 177 µM) | CC(C)c1nnc(CN2CCN(c3nccs3)CC2)o1 |
| 6.3 mL/min/kg | 14.2 mL/min/kg | – | – | – | – | COCC(=O)N(CC1CCCO1)c1nc2c(s1)CCc1c-2cnn1C (stereo not given) |
| ≤ 4.74 mL/min/kg | 496 mL/min/kg | – | – | – | – | Cc1c(C(=O)Nc2cnccn2)cccc1-c1ccccn1 |
| 12.5 mL/min/kg | 141 mL/min/kg | 3.77 | – | – | – | CC(C)CCN1CCC(CNC(=O)C2CC=CC2)CC1 |
| 5.54 mL/min/kg | 181 mL/min/kg | 47.2 | – | – | – | C[C@]1(O)CN(C(=O)Cn2cnc3ccccc32)CC[C@@H]1Oc1ccccc1 |
| 182 mL/min/kg | 298 mL/min/kg | 0.629 | – | – | – | COc1nccnc1N1CCC(C(=O)Nc2cccc(F)c2)CC1 |
| 244 mL/min/kg | 2260 mL/min/kg | – | – | – | – | Cc1ccc(S(=O)(=O)N2CCCc3ccc(NS(=O)(=O)c4cc(F)ccc4F)cc32)cc1 |
| 7.74 mL/min/kg | 179 mL/min/kg | 6.36 | – | – | – | Cn1cc(CN2CCCC(c3ccnc(Nc4cnccn4)c3)C2)cn1 (stereo not given) |
| 239 mL/min/kg | 1730 mL/min/kg | 45 | – | – | 46.7 µg/mL (≈ 127 µM) | O=C(Cc1cccc2ccccc12)NCc1nnc2n1-c1ccccc1CC2 |
| ≤ 4.74 mL/min/kg | 174 mL/min/kg | 0.65 | – | – | 36.7 µg/mL (≈ 144 µM) | CCN(Cc1ccccc1)C(=O)c1cccnc1N |
| ≤ 4.74 mL/min/kg | 46 mL/min/kg | 23.2 | – | – | – | CN(CC1(CO)CCC1)C(=O)CCN1CCCCC1=O |
| 4.83 mL/min/kg | 74.7 mL/min/kg | 61.5 | – | – | 43.4 µg/mL (≈ 124 µM) | CCc1nnc2n1CCN(C(=O)c1ccccc1Oc1cccnc1)C2 |
| ≤ 4.74 mL/min/kg | 93.1 mL/min/kg | 0.998 | – | – | 34.8 µg/mL (≈ 116 µM) | CCNC(=O)c1ccc(-c2cc(C)cc(OC)c2OC)nc1 |
| ≤ 4.74 mL/min/kg | ≤ 10.7 mL/min/kg | 128 | – | – | – | O=C(c1ccc(Cl)cc1)N1CCC(c2nnc3n2CCCC3)CC1 |
| ≤ 4.74 mL/min/kg | 19.8 mL/min/kg | 1.21 | – | – | – | O=C(c1cc(F)ccc1F)N1CCN(C(=O)C2CC2)CC1 |

| intrinsic clearance, human liver microsomes | intrinsic clearance, rat liver microsomes | MDR1-MDCK efflux ratio | fraction unbound, human plasma | fraction unbound, rat plasma | aqueous solubility | Structure (SMILES) |
| --- | --- | --- | --- | --- | --- | --- |
| 122 mL/min/kg | 2520 mL/min/kg | 0.547 | – | – | 6.12 µg/mL (≈ 21.4 µM) | Cc1ccc2c(CC(=O)NCc3cccs3)coc2c1 |
| ≤ 4.74 mL/min/kg | 44.1 mL/min/kg | 0.734 | 0.221 | 0.203 | – | COc1ccc(CCCN2CCN(c3cnn(C)c3)C(=O)C2)cc1F |
| ≤ 4.74 mL/min/kg | 121 mL/min/kg | 4.4 | – | – | 55.1 µg/mL (≈ 189 µM) | CN(C)[C@@H]1CN(C(=O)c2cc3ccc(F)cc3[nH]2)C[C@H]1O |
| 206 mL/min/kg | 2510 mL/min/kg | 0.802 | – | – | 41 µg/mL (≈ 134 µM) | c1ccc(CCn2cnc3c2CCN(c2ncccn2)C3)cc1 |
| 57.9 mL/min/kg | 607 mL/min/kg | 1.3 | – | – | – | COc1cccc(C(=O)NCC(=O)Nc2cccc3c2CCCC3)c1 |
| ≤ 4.74 mL/min/kg | 23.5 mL/min/kg | – | – | – | 48.9 µg/mL (≈ 148 µM) | CCN(CC)CC(=O)N1CCC(n2c(=O)[nH]c3ccccc32)CC1 |
| 180 mL/min/kg | 783 mL/min/kg | 23.6 | – | – | 28 µg/mL (≈ 58.3 µM) | CC(C)NC(=O)N1CC[C@H](NC2=Nc3cc(F)ccc3N(CC(F)F)c3ccc(Cl)cc32)C1 |
| 56.6 mL/min/kg | 2210 mL/min/kg | 0.765 | – | – | 43.9 µg/mL (≈ 156 µM) | Cc1cc(OCC(=O)N(C)C2CCCCCCC2)no1 |
| 24.8 mL/min/kg | 40.3 mL/min/kg | 0.586 | – | – | 47.3 µg/mL (≈ 215 µM) | CNC(=O)c1ccc(N(C)C2CCC2)nn1 |
| ≤ 4.74 mL/min/kg | ≤ 10.7 mL/min/kg | 7 | – | – | 43.1 µg/mL (≈ 151 µM) | O=C(c1ccc(O)nc1)N1CCN(c2ncccn2)CC1 |
| ≤ 4.74 mL/min/kg | 191 mL/min/kg | – | – | – | – | CN1CCCN(C(=O)Nc2cccc(OCC(F)F)n2)CC1 |
| ≤ 4.74 mL/min/kg | ≤ 10.7 mL/min/kg | – | – | – | 26 µg/mL (≈ 112 µM) | CCCCNC(=O)c1ccc2c(c1)nnn2C |
| 177 mL/min/kg | 212 mL/min/kg | – | – | – | – | CN1CCN(c2ccc3nc(-c4cc(C(C)(C)C)c(OCCCC(=O)NCCCN=[N+]=[N-])c(C(C)(C)C)c4)[nH]c3c2)CC1 |
| 21.3 mL/min/kg | 187 mL/min/kg | 28.9 | 0.0863 | 0.0467 | 64.6 µg/mL (≈ 142 µM) | CC#CC(=O)N1CC[C@@H](n2c(=O)n(-c3ccc(Oc4ccccc4)cc3)c3c(N)ncnc32)C1 |
| ≤ 4.74 mL/min/kg | 19.2 mL/min/kg | – | – | – | – | Cc1ccc(NC(=O)c2ccn(C(C)C)n2)cc1N1C(=O)CCC1=O |
| 228 mL/min/kg | 3380 mL/min/kg | 0.535 | – | – | 40.8 µg/mL (≈ 123 µM) | Cc1ccc(-c2noc(CCC(=O)N3CCCC3(C)C)n2)cc1F |
